Data as given in publication PMC11203266, “Continuous evolution of compact protein degradation tags regulated by selective molecular glues” (Science (New York, N.Y.), 2024).
Entries after “also recorded” stand apart in the source; their conditions may differ.

Legend:
[1] = system: HEK293T cells; assay: Global quantitative proteomics, HEK293T; type: cell-based, human; settings: 1 µM; for proteins downregulated (in words): 5 hours
Procedure: (§1) Cells were lysed by addition of lysis buffer (8 M Urea, 50 mM NaCl, 50 mM 4-(2-hydroxyethyl)-1-piperazineethanesulfonic acid (EPPS) pH 8.5, Protease and Phosphatase inhibitors) and homogenization by bead beating (BioSpec) for three repeats of 30 seconds at 2400. Bradford assay was used to determine the final protein concentration in the clarified cell lysate. 50 μg of protein for each sample was reduced, alkylated and precipitated using methanol/chloroform as previously described ([32]) and the resulting washed precipitated protein was allowed to air dry. Precipitated protein was resuspended in 4 M Urea, 50 mM HEPES pH 7.4, followed by dilution to <1 M urea with the addition of 200 mM EPPS, pH 8. Proteins were digested with LysC (1:50; enzyme:protein) and trypsin (1:50; enzyme:protein) overnight at 37 °C. Sample digests were acidified with formic acid to a pH of 2-3 prior to desalting using C18 solid phase extraction plates (SOLA, Thermo Fisher Scientific). Desalted peptides were dried in a vacuum centrifuge and reconstituted in 0.1% formic acid for LC-MS analysis.
(§2) Data were collected using a TimsTOF Pro2 (Bruker Daltonics, Bremen, Germany) coupled to a nanoElute LC pump (Bruker Daltonics, Bremen, Germany) via a CaptiveSpray nano-electrospray source. Peptides were separated on a reversed-phase C18 column (25 cm x 75 μm ID, […], IonOpticks, Australia) containing an integrated captive spray emitter. Peptides were separated using a 50 min gradient of 2 – 30% buffer B (acetonitrile in 0.1% formic acid) with a flow rate of 250 nL/min and column temperature maintained at 50 °C.
(§3) DDA was performed in Parallel Accumulation-Serial Fragmentation (PASEF) mode to determine effective ion mobility windows for downstream diaPASEF data collection (Meier et al., 2020). The ddaPASEF parameters included: 100% duty cycle using accumulation and ramp times of 50 ms each, 1 TIMS-MS scan and 10 PASEF ramps per acquisition cycle. The TIMS-MS survey scan was acquired between 100–1700 m/z and 1/k0 of 0.7–1.3 V.s/cm^2. Precursors with 1–5 charges were selected and those that reached an intensity threshold of 20,000 arbitrary units were actively excluded for 0.4 min. The quadrupole isolation width was set to 2 m/z for m/z <700 and 3 m/z for m/z >800, with the m/z between 700–800 m/z being interpolated linearly. The TIMS elution voltages were calibrated linearly with three points (Agilent ESI-L Tuning Mix Ions; 622, 922, 1,222 m/z) to determine the reduced ion mobility coefficients (1/K0). To perform diaPASEF, the precursor distribution in the DDA m/z-ion mobility plane was used to design an acquisition scheme for DIA data collection which included two windows in each 50 ms diaPASEF scan. Data was acquired using sixteen of these 25 Da precursor double window scans (creating 32 windows) which covered the diagonal scan line for doubly and triply charged precursors, with singly charged precursors able to be excluded by their position in the m/z-ion mobility plane. These precursor isolation windows were defined between 400–1200 m/z and 1/k0 of 0.7–1.3 V.s/cm^2.
(§4) The diaPASEF raw file processing and controlling peptide and protein level false discovery rates, assembling proteins from peptides, and protein quantification from peptides was performed using either targeted, cell line specific spectral libraries generated by searching offline fractionated DDApasef data against a Swissprot human or mouse database (January 2021) or using library free analysis in DIA-NN 1.8 ([85]). Library free mode performs an in-silico digestion of a given protein sequence database alongside deep learning-based predictions to extract the DIA precursor data into a collection of MS2 spectra. The search results are then used to generate a spectral library which is then employed for the targeted analysis of the DIA data searched against a Swissprot human or mouse database (January 2021). […]

[2] = system: MOLT4 cells; assay: Global quantitative proteomics, MOLT4; type: cell-based, human; settings: 1 µM; for proteins downregulated (in words): 5 hours, threshold ≥ 2-fold at p ≤ 0.0001
Procedure: as §1, §2, §3, §4

[3] = system: Ba/F3 cells; assay: Global quantitative proteomics, Ba/F3; type: cell-based, mouse; settings: 1 µM; for changes to protein expression (in words): pomalidomide 5 hrs, PT-179 5 and 24 hrs
Procedure: as §1, §2, §3
The diaPASEF raw file processing and controlling peptide and protein level false discovery rates, assembling proteins from peptides, and protein quantification from peptides was performed using either targeted, cell line specific spectral libraries generated by searching offline fractionated DDApasef data against a Swissprot human or mouse database (January 2021) or using library free analysis in DIA-NN 1.8 ([85]). Library free mode performs an in-silico digestion of a given protein sequence database alongside deep learning-based predictions to extract the DIA precursor data into a collection of MS2 spectra. The search results are then used to generate a spectral library which is then employed for the targeted analysis of the DIA data searched against a Swissprot human or mouse database (January 2021).

[4] = system: HEK293T cells stably expressing SD40–eGFP; assay: Global quantitative proteomics, HEK293T expressing SD40–eGFP; type: cell-based, human; settings: 1 µM
Procedure: To test the versatility of SD40, we generated five stable HEK293T cell lines that exogenously express N- or C-terminal SD40 fusions with Nluc, Fluc, and the kinase activator PRKRA. […] To investigate whether SD40 targets unintended neosubstrates for degradation, we performed global proteomics using HEK293T cells stably expressing SD40–eGFP.
as §1, §2, §3
The diaPASEF raw file processing and controlling peptide and protein level false discovery rates, assembling proteins from peptides, and protein quantification from peptides was performed using either targeted, cell line specific spectral libraries generated by searching offline fractionated DDApasef data against a Swissprot human or mouse database (January 2021) or using library free analysis in DIA-NN 1.8 ([85]). […]

[5] = system: KELLY cells; assay: Global quantitative proteomics, KELLY; type: cell-based, human; settings: 1 µM; for proteins downregulated (in words): 5 hours
Procedure: as §1, §2, §3, §4

[6] = vs DMSO, 5 hr, HEK293T SD40–eGFP
[7] = vs DMSO, 24 hr, HEK293T SD40–eGFP

## Nc1cccc2c1C(=O)N(C1CCC(=O)NC1=O)C2=O (stereo not shown) [pomalidomide, reference compound]
[1]
  proteins downregulated (in words): induced degradation of ZFP91
[1]; vs DMSO, 5 hr, HEK293T
  logFC C3 (P01024): 7.85E-01
  logFC DTWD1 (Q8N5C7): -1.29E+00
  logFC EIF5A (P63241): 1.83E-01
  logFC PKM (P14618): 1.32E-01
  logFC ZFP91 (Q96JP5): -2.05E+00
[2]
  proteins downregulated (in words): significant downregulation of the previously identified neosubstrates IKZF1 ([9]) and ZFP91
[2]; vs DMSO, 5 hr, MOLT4
  logFC DYNLT1 (P63172): -9.35E-01
  logFC IKZF1 (Q13422): -2.37E+00
  logFC IKZF3 (Q9UKT9): -9.56E-01
  logFC RAB28 (P51157): -1.66E+00
  logFC ZFP91 (Q96JP5): -1.83E+00
[3]
  changes to protein expression (in words): do not degrade proteins
[3]; vs DMSO, 5 hr, Ba/F3
  logFC Bola1 (Q9D8S9): -2.16E-01
  logFC Dusp19 (Q8K4T5): -7.00E-01
  logFC Inpp5k (Q8C5L6): -9.47E-01
  logFC Llph (Q9D945): 2.10E-01
  logFC Med8 (Q9D7W5): -3.40E-01
[4]; 5 hours
  proteins degraded (in words): SD40-eGFP was significantly degraded alongside multiple known endogenous neosubstrates of pomalidomide
[4]; [6]
  logFC MCFD2 (Q8NI22): -1.02E+00
  logFC SD40 (XSD40X; SD40–eGFP): -4.04E+00
  logFC SRSF3 (P84103): -1.12E-01
  logFC SURF4 (O15260): 2.44E-01
  logFC ZFP91 (Q96JP5): -2.03E+00
[5]
  proteins downregulated (in words): robust downregulation of the developmental transcription factor SALL4 ([32]) and ZFP91
[5]; vs DMSO, 5 hr, KELLY
  logFC DTWD1 (Q8N5C7): -1.64E+00
  logFC GID8 (Q9NWU2): -1.75E+00
  logFC RAB28 (P51157): -1.53E+00
  logFC SALL4 (Q9UJQ4): -2.26E+00
  logFC SSNA1 (O43805): -1.42E+00

## O=C1CCC(N2C(=O)c3ccc(N4CCOCC4)cc3C2=O)C(=O)N1 (stereo not shown) [PT-179]
[1]
  proteins downregulated (in words): did not downregulate any detected proteins
[1]; vs DMSO, 5 hr, HEK293T
  logFC EIF5A (P63241): 1.52E-01
  logFC GAL (P22466): 8.26E-01
  logFC ITPKC (Q96DU7): 6.63E-01
  logFC RBM23 (Q86U06): 2.25E-01
  logFC ROR1 (Q01973): 8.84E-01
[2]
  proteins downregulated (in words): did not significantly downregulate any detected proteins
[2]; vs DMSO, 5 hr, MOLT4
  logFC ACSL1 (P33121): -1.03E+00
  logFC APOBEC3C (Q9NRW3): -8.07E-01
  logFC ARAP2 (Q8WZ64): -9.22E-01
  logFC NXT1 (Q9UKK6): -8.48E-01
  logFC SNX11 (Q9Y5W9): -9.02E-01
[3]
  changes to protein expression (in words): do not degrade proteins; also recorded: no significant changes to protein expression
[3]; vs DMSO, 5 hr, Ba/F3
  logFC Bak1 (O08734): -1.95E-01
  logFC Hspa1l (P16627): 3.76E-01
  logFC Polr2l (P62876): 5.32E-01
  logFC Prkd1 (Q62101): 5.39E-01
  logFC Rpa2 (Q62193): 1.32E-01
[3]; vs DMSO, 24 hr, Ba/F3
  logFC Pigo (Q9JJI6): -3.94E-01
  logFC Ppib (P24369): 9.71E-02
  logFC Prpf38a (Q4FK66): -1.96E-01
  logFC Ube2v1 (Q9CZY3): 5.05E-01
  logFC Uchl4 (P58321): 1.38E-01
[4]; 5 and 24 hours, ≥ 2-fold at p ≤ 0.0001, ~7,800 detected
  proteins degraded (in words): SD40–eGFP was the only significantly degraded protein
[4]; [6]
  logFC MFSD10 (Q14728): -5.07E-01
  logFC RAB18 (Q9NP72): -1.62E-01
  logFC RALY (Q9UKM9): -1.52E-01
  logFC SD40 (XSD40X; SD40–eGFP): -4.05E+00
  logFC SYNCRIP (O60506): -1.02E-01
[4]; [7]
  logFC H2AFV (Q71UI9): 1.94E-01
  logFC RPS15 (P62841): 1.99E-01
  logFC SD40 (XSD40X; SD40–eGFP): -3.53E+00
  logFC SUMO1P1 (G2XKQ0): 1.61E-01
  logFC TAGLN3 (Q9UI15): 4.42E-01
[5]
  proteins downregulated (in words): no significant degradation of detected proteins
[5]; vs DMSO, 5 hr, KELLY
  logFC GLMP (Q8WWB7): -1.07E+00
  logFC KIAA1958 (Q8N8K9): -1.94E+00
  logFC SYT14 (Q8NB59): -1.10E+00
  logFC TIMM8B (Q9Y5J9): -1.14E+00
  logFC TUB (P50607): -1.12E+00
